From PubChem BioAssay (NCI)
Where “and” joins values, the source holds several entries; their conditions need not be identical. Equal values may be shown once.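 Growth conditions: 96-well plates. Treatment: test compound, 48 hours, 5 concentrations. Analysis: linear interpolation between bracketing concentrations; unreached endpoints set to highest concentration. TGI: concentration producing complete growth inhibition.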

Key:
Assay in all cases: inhibition of tumour cell growth, NCI panel, 48 h
[1] = test system: LOX IMVI melanoma
[2] = test system: SF-295 CNS
[3] = test system: 786-0 renal
[4] = test system: EKVX NSCLC
[5] = test system: OVCAR-3 ovarian
[6] = test system: SK-MEL-5 melanoma
[7] = test system: CCRF-CEM leukemia
[8] = test system: SW-620 colon
[9] = test system: OVCAR-5 ovarian
[10] = test system: KM20L2 colon
[11] = test system: SR leukemia
[12] = test system: NCI-H522 lung
[13] = test system: SNB-19 CNS
[14] = test system: OVCAR-8 ovarian
[15] = test system: ACHN renal
[16] = test system: SK-MEL-2 melanoma
[17] = test system: NCI-H460 lung
[18] = test system: RPMI-8226 leukemia
[19] = test system: RXF 393 renal
[20] = test system: M14 melanoma
[21] = test system: SF-268 CNS
[22] = test system: M19-MEL melanoma
[23] = test system: U251 CNS
[24] = test system: NCI-H23 lung
[25] = test system: HOP-62 NSCLC
[26] = test system: IGROV1 ovarian
[27] = test system: COLO 205 colon
[28] = test system: HCT-15 colon
[29] = test system: XF 498 CNS
[30] = test system: UO-31 renal
[31] = test system: OVCAR-4 ovarian
[32] = test system: LXFL 529 NSCLC
[33] = test system: UACC-62 melanoma
[34] = test system: KM12 colon
[35] = test system: SK-MEL-28 melanoma
[36] = test system: SNB-78 CNS
[37] = test system: HCT-116 colon
[38] = test system: HL-60(TB) leukemia
[39] = test system: MOLT-4 leukemia
[40] = test system: TK-10 renal
[41] = test system: DMS 273 small cell lung
[42] = test system: A549 NSCLC
[43] = test system: SN12C renal
[44] = test system: MALME-3M melanoma
[45] = test system: NCI-H226 lung
[46] = test system: MDA-N
[47] = test system: SF-539 CNS
[48] = test system: NCI/ADR-RES ovarian
[49] = test system: BT-549 breast
[50] = test system: MCF7 breast
[51] = test system: T-47D breast
[52] = test system: HCC-2998 colon
[53] = test system: HT29 colon
[54] = test system: HOP-92 NSCLC
[55] = test system: CAKI-1 renal
[56] = test system: HS 578T breast
[57] = test system: DU-145 prostate
[58] = test system: A498 renal
[59] = test system: SK-OV-3 ovarian
[60] = test system: UACC-257 melanoma
[61] = test system: MDA-MB-231 breast
[62] = test system: K-562 leukemia
[63] = test system: PC-3 prostate
[64] = test system: MDA-MB-435
[65] = test system: SNB-75 CNS
[66] = test system: DLD-1 colon
[67] = test system: DMS 114 small cell lung
[68] = test system: HOP-18 NSCLC

CC(C(=O)N1C(=O)N(C(=O)C(C)C(O)c2ccccc2)C2CCCCC21)C(O)c1ccccc1 (stereo not given)
TGI [1]: > 100 µM
TGI [2]: > 100 µM
TGI [3]: > 100 µM
TGI [4]: > 100 µM
TGI [5]: > 100 µM
TGI [6]: > 100 µM
TGI [7]: > 100 µM
TGI [8]: > 100 µM
TGI [9]: > 100 µM
TGI [10]: > 100 µM
TGI [11]: > 100 µM
TGI [12]: > 100 µM
TGI [13]: > 100 µM
TGI [14]: > 100 µM
TGI [15]: > 100 µM
TGI [16]: > 100 µM
TGI [17]: > 100 µM
TGI [18]: > 100 µM
TGI [19]: > 100 µM
TGI [20]: > 100 µM
TGI [21]: > 100 µM
TGI [22]: > 100 µM
TGI [23]: > 100 µM
TGI [24]: > 100 µM
TGI [25]: > 100 µM
TGI [26]: > 100 µM
TGI [27]: > 100 µM
TGI [28]: > 100 µM
TGI [29]: > 100 µM
TGI [30]: > 100 µM
TGI [31]: > 100 µM
TGI [32]: > 100 µM
TGI [33]: > 100 µM
TGI [34]: > 100 µM
TGI [35]: > 100 µM
TGI [36]: > 100 µM
TGI [37]: > 100 µM
TGI [38]: 70 µM
TGI [39]: 87.1 µM
TGI [40]: > 100 µM
TGI [41]: > 100 µM
TGI [42]: > 100 µM
TGI [43]: > 100 µM
TGI [44]: > 100 µM

COc1cc(-c2cc(=O)c3cc4c(=O)cc(-c5cc(OC)c(OC)c(OC)c5)oc4cc3o2)cc(OC)c1OC
TGI [1]: > 100 µM
TGI [2]: 40.6 µM
TGI [3]: 39 µM
TGI [45]: 46.2 µM
TGI [46]: > 100 µM
TGI [4]: > 100 µM
TGI [5]: > 100 µM
TGI [6]: > 100 µM
TGI [47]: > 100 µM
TGI [48]: > 100 µM
TGI [7]: > 100 µM
TGI [8]: > 100 µM
TGI [9]: > 100 µM
TGI [11]: > 100 µM
TGI [12]: > 85.8 µM
TGI [13]: 59.6 µM
TGI [14]: > 100 µM
TGI [49]: 86.2 µM
TGI [15]: > 85.1 µM
TGI [50]: > 100 µM
TGI [16]: 41.3 µM
TGI [51]: > 100 µM
TGI [17]: > 100 µM
TGI [52]: > 100 µM
TGI [53]: > 100 µM
TGI [18]: > 100 µM
TGI [19]: 26.4 µM
TGI [54]: 43.3 µM
TGI [20]: > 100 µM
TGI [21]: > 94.7 µM
TGI [55]: > 31.6 µM
TGI [56]: 97.2 µM
TGI [23]: 23.4 µM
TGI [24]: > 67.8 µM
TGI [25]: 26.4 µM
TGI [26]: > 79.1 µM
TGI [27]: > 100 µM
TGI [28]: > 100 µM
TGI [57]: > 100 µM
TGI [58]: 65.6 µM
TGI [59]: 41.4 µM
TGI [30]: > 100 µM
TGI [31]: > 100 µM
TGI [33]: > 64.5 µM
TGI [60]: > 100 µM
TGI [61]: > 64.5 µM
TGI [62]: > 56 µM
TGI [34]: > 100 µM
TGI [35]: > 100 µM
TGI [63]: > 100 µM
TGI [37]: > 100 µM
TGI [38]: > 100 µM
TGI [39]: > 100 µM
TGI [64]: > 100 µM
TGI [40]: 42.5 µM
TGI [42]: > 100 µM
TGI [65]: 32.3 µM
TGI [43]: > 100 µM
TGI [44]: > 100 µM

COc1cc2c(cc1OC)[C@H]1CN3CCC[C@H]3C=C1c1ccc(OC)c(O)c1-2
TGI [1]: 0.000604 µM
TGI [2]: 0.00039 µM
TGI [3]: 0.0169 µM
TGI [45]: 0.0102 µM
TGI [46]: 0.112 µM
TGI [6]: 0.00133 µM
TGI [47]: 0.0058 µM and 0.0358 µM
TGI [7]: 0.0376 µM and 0.35 µM
TGI [9]: 0.00431 µM and 0.0108 µM
TGI [11]: 0.00437 µM
TGI [12]: 0.000856 µM
TGI [14]: 0.0015 µM and 0.0123 µM
TGI [49]: 0.206 µM
TGI [15]: 0.0154 µM
TGI [16]: 0.000975 µM
TGI [51]: 0.132 µM
TGI [17]: 0.00509 µM and 0.0106 µM
TGI [52]: 0.0149 µM and 0.0736 µM
TGI [53]: 0.0218 µM and 0.0484 µM
TGI [18]: 0.0012 µM
TGI [19]: 0.0437 µM
TGI [66]: 0.0109 µM and 0.0123 µM
TGI [54]: 0.000382 µM
TGI [20]: 0.000985 µM
TGI [55]: 0.000133 µM
TGI [22]: < 0.0001 µM
TGI [56]: 0.00677 µM
TGI [67]: 0.00014 µM
TGI [23]: 1.25 µM
TGI [24]: 0.00184 µM
TGI [26]: 0.00323 µM and 0.0137 µM
TGI [27]: 0.00119 µM
TGI [57]: 0.162 µM
TGI [59]: 0.000342 µM
TGI [30]: 0.00324 µM
TGI [31]: 0.00362 µM
TGI [68]: 0.000181 µM
TGI [33]: 0.000267 µM
TGI [60]: 0.00835 µM
TGI [61]: 0.0523 µM
TGI [34]: 0.00183 µM
TGI [63]: 0.0269 µM
TGI [36]: 0.00049 µM
TGI [37]: 0.00302 µM
TGI [64]: 0.0269 µM
TGI [40]: 0.114 µM
TGI [41]: 0.000139 µM
TGI [44]: 0.00179 µM

O=C(/C=C/c1ccccc1)c1ccccc1
TGI [1]: 4.11 µM
TGI [2]: > 10 µM
TGI [3]: > 10 µM
TGI [45]: > 10 µM
TGI [46]: > 10 µM
TGI [4]: > 10 µM
TGI [5]: > 10 µM
TGI [6]: > 10 µM
TGI [47]: > 10 µM
TGI [48]: > 10 µM
TGI [7]: > 7.45 µM
TGI [8]: > 10 µM
TGI [9]: > 10 µM
TGI [11]: > 10 µM
TGI [12]: > 10 µM
TGI [13]: > 10 µM
TGI [14]: > 10 µM
TGI [49]: > 10 µM
TGI [15]: > 10 µM
TGI [50]: > 10 µM
TGI [16]: > 10 µM
TGI [51]: > 10 µM
TGI [17]: > 10 µM
TGI [52]: > 10 µM
TGI [53]: > 10 µM
TGI [18]: > 7.63 µM
TGI [19]: > 10 µM
TGI [54]: > 10 µM
TGI [20]: > 10 µM
TGI [21]: > 10 µM
TGI [55]: > 10 µM
TGI [56]: > 10 µM
TGI [23]: > 10 µM
TGI [24]: > 10 µM
TGI [25]: > 10 µM
TGI [26]: > 10 µM
TGI [27]: > 10 µM
TGI [28]: > 10 µM
TGI [57]: > 10 µM
TGI [58]: > 10 µM
TGI [59]: > 10 µM
TGI [30]: > 10 µM
TGI [31]: > 10 µM
TGI [33]: > 10 µM
TGI [60]: > 10 µM
TGI [61]: > 10 µM
TGI [62]: > 7.51 µM
TGI [34]: > 10 µM
TGI [35]: > 10 µM
TGI [63]: > 10 µM
TGI [37]: 4.55 µM
TGI [38]: > 10 µM
TGI [39]: > 3.16 µM
TGI [64]: > 10 µM
TGI [40]: > 10 µM
TGI [42]: > 10 µM
TGI [65]: > 10 µM
TGI [43]: > 10 µM
TGI [44]: > 10 µM
